Source: patent US20240417393A1, “CERTAIN 2,5-DIAZABICYCLO[4.2.0]OCTANES AS GLP-1 RECEPTOR MODULATORS” (ASTRAZENECA AB, priority 2021, published 2024)
pEC50, pIC50: −log10 of the molar value.

Legend:
human GLP-1R receptor = target: T1, human GLP-1R receptor (Homo sapiens, UniProt P43220, L260F); assay: CHOK1 GLP-1R cAMP Assay (HTRF); assay type: cell-based; settings: CHO-K1 cells stably expressing human GLP-1R (Leu260Phe variant), 20 min at rt
T1 construct: expressed in transfected cells; host or cells: CHO-K1 (ATCC CCL-61)

[1] = target: T2, GLP-1R in a pancreatic insulinoma cell line (EndoC-PH1) (Homo sapiens, UniProt P43220); assay: EndoC cAMP Accumulation Assay (HTRF); assay type: cell-based; settings: EndoC-PH1 human pancreatic beta cell line, endogenous GLP-1R, 30 min at rt
T2 construct: host or cells: EndoC-βH1 human pancreatic beta cell line
Method in brief: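 Thawed human EndoC-βH1 cells, about 3000 per well, stimulated with compound 30 min at room temperature in HBSS/HEPES pH 7.4 with 0.1% BSA and 0.5 mM IBMX; cAMP by competitive HTRF. Responses as % activation relative to maximal GIP (82.5 nM), 4-parameter logistic fit.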

[2] = target: T3, human phosphodiesterase-3A (Homo sapiens, UniProt Q14432); assay: PDE3 Assay ([3H]cAMP to 5'AMP, SPA); assay type: biochemical; settings: human recombinant PDE3A expressed in Sf9 cells; 450 nM cAMP; 20 min at 22° C.
T3 construct: host or cells: Sf9 (Spodoptera frugiperda) cells
Description: Evaluation of the effects of compounds on the activity of the human phosphodiesterase-3A is quantified by measuring the formation of 5′AMP from cAMP using a human recombinant is enzyme expressed in a clonal isolate of Spodoptera frugiperda cells (Sf9) cells.
The test compound, reference compound or water (control) are added to a buffer containing 40 mM tris(hydroxymethyl)aminomethane (Tris)/HCl (pH 7.4) and 8 mM MgCl2, 450 nMcAMP and 0.25 μCi [^3H]cAMP.
Thereafter, the reaction is initiated by addition of the enzyme (about 1U) and the mixture is incubated for 20 min at 22° C.
For basal control measurements, the enzyme is omitted from the reaction mixture.
Following incubation SPA beads are added. After 30 min at 22° C. under shaking, the amount of [^3H]5′AMP is quantified with a scintillation counter (Topcount, Packard).
The results are expressed as a percent inhibition of the control enzyme activity. The standard inhibitory reference compound is milrinone (CAS number 78415-72-2), which is tested in each experiment at several concentrations to obtain an inhibition curve from which its IC50 value is calculated.

T1 sequence (P43220 24-463 L260F): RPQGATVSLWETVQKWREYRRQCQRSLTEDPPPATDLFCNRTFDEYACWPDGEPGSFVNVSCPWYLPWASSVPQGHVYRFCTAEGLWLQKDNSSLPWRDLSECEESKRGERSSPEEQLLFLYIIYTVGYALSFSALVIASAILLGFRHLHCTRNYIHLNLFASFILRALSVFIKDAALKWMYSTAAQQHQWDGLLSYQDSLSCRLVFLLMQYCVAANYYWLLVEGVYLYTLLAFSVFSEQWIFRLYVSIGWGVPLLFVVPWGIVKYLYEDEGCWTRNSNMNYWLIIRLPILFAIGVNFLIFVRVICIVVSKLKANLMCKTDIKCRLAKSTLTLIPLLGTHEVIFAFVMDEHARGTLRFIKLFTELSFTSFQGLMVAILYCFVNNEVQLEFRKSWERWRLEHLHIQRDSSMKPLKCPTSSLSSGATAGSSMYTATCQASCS
T3 sequence (Q14432 whole entry): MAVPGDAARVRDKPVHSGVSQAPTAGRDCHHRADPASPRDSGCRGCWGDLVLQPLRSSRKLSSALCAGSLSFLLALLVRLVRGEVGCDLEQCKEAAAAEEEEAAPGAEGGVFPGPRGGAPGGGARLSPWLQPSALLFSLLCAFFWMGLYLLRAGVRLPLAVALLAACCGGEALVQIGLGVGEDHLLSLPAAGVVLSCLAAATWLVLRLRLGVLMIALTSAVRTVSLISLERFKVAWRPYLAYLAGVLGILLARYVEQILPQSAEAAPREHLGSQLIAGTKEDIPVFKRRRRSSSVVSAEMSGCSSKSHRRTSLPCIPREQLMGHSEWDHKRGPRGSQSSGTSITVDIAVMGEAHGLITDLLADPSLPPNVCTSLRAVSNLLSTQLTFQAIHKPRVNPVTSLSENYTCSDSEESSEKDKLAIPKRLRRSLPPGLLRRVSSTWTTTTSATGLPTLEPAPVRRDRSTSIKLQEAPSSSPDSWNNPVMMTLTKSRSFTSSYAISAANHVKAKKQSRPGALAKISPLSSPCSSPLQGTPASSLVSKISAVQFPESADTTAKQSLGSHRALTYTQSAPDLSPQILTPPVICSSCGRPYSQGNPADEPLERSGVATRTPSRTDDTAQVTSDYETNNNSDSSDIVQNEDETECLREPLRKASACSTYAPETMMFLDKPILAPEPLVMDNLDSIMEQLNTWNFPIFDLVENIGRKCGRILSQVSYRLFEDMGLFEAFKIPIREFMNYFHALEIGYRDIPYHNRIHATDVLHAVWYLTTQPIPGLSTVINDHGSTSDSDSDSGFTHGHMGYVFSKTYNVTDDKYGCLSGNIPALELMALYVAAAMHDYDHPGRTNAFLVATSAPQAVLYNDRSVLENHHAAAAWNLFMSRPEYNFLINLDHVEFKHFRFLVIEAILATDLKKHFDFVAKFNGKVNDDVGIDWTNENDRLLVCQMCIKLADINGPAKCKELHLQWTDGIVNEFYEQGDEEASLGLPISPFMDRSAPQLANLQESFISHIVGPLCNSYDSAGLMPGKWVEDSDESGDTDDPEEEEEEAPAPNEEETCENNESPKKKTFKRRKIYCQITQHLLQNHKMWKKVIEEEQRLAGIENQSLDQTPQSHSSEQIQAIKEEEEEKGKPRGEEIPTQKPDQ
T2 sequence (P43220 24-463): as the sequence (P43220 24-463 L260F) above, with F237L counted along it

Row | Compound | pEC50 (human GLP-1R receptor) | pEC50 [1] | pIC50 [2]
1 | CCn1ccnc1Cn1c(CN2CCN(c3cccc4c3O[C@@](C)(c3ccc(Cl)cn3)O4)[C@H]3CC[C@@H]32)nc2c(Cl)cc(C(=O)O)cc21 (single isomer, unassigned) [Example 10a] | 9.05 | 8.46 | < 4.00
2 | C[C@]1(c2ccc(Cl)cn2)Oc2cccc(N3CCN(Cc4nc5c(Cl)cc(C(=O)O)cc5n4C[C@@H]4CCO4)[C@@H]4CC[C@H]43)c2O1 (single isomer, unassigned) [Example 3b] | 9.05 | 8.59 | < 4.00
3 | C[C@]1(c2ccc(Cl)cc2F)Oc2cccc(N3CCN(Cc4nc5c(F)cc(C(=O)O)cc5n4C[C@@H]4CCO4)[C@H]4CC[C@H]43)c2O1 (single isomer, unassigned) [Example 9b] | 9.10 | 8.48 | < 4.00
4 | C[C@]1(c2ccc(Cl)cn2)Oc2cccc(N3CCN(Cc4nc5c(F)cc(C(=O)O)cc5n4C[C@@H]4CCO4)[C@H]4CC[C@H]43)c2O1 (single isomer, unassigned) [Example 1c, 2-((1R*,6S*)-5-(R*)-2-(5-Chloropyridin-2-yl)-2-methylbenzo[d][1,3]dioxol-4-yl)-2,5-diazabicyclo[4.2.0]octan-2-yl)methyl)-4-fluoro-1-(((S)-oxetan-2-yl)methyl)-1H-benzo[d]imidazole-6-carboxylic acid] | 8.66 | 8.49 | < 4.00
5 | C[C@]1(c2ccc(Cl)cn2)Oc2cccc(N3CCN(Cc4nc5c(F)cc(C(=O)O)cc5n4C[C@@H]4CCO4)[C@H]4CC[C@H]43)c2O1 (single isomer, unassigned) [Example 1b, 2-(((1R*,6S*)-5-((R*)-2-(5-Chloropyridin-2-yl)-2-methylbenzo[d][1,3]dioxol-4-yl)-2,5-diazabicyclo[4.2.0]octan-2-yl)methyl)-4-fluoro-1-(((S)-oxetan-2-yl)methyl)-1H-benzo[d]imidazole-6-carboxylic acid] | 8.92 | 8.54 | < 4.06
6 | COc1cc(C(=O)O)cc2c1nc(CN1CCN(c3cccc4c3O[C@@](C)(c3ccc(Cl)cn3)O4)[C@H]3CC[C@@H]31)n2C[C@@H]1CCCO1 (single isomer, unassigned) [Example 7b, 2-(((1R*,6R*)-5-((R*)-2-(5-Chloropyridin-2-yl)-2-methylbenzo[d][1,3]dioxol-4-yl)-2,5-diazabicyclo[4.2.0]octan-2-yl)methyl)-4-methoxy-1-(((S)-tetrahydrofuran-2-yl)methyl)-1H-benzo[d]imidazole-6-carboxylic acid] | 8.60 | 8.21 | < 4.00
7 | C[C@]1(c2ccc(Cl)cn2)Oc2cccc(N3CCN(Cc4nc5ccc(C(=O)O)cc5n4C[C@@H]4CCO4)[C@H]4CC[C@H]43)c2O1 (single isomer, unassigned) [Example 5a, 2-((1R*,6S*)-5-(R*)-2-(5-Chloropyridin-2-yl)-2-methylbenzo[d][1,3]dioxol-4-yl)-2,5-diazabicyclo[4.2.0]octan-2-yl)methyl)-1-(((S)-oxetan-2-yl)methyl)-1H-benzo[d]imidazole-6-carboxylic acid] | 8.72 | 8.19 | < 4.00
8 | C[C@]1(c2ccc(Cl)cn2)Oc2cccc(N3CCN(Cc4nc5c(Cl)cc(C(=O)O)cc5n4C[C@@H]4CCO4)[C@H]4CC[C@@H]43)c2O1 (single isomer, unassigned) [Example 3c, 4-Chloro-2-(((1R*,6R*)-5-((R*)-2-(5-chloropyridin-2-yl)-2-methylbenzo[d][1,3]dioxol-4-yl)-2,5-diazabicyclo[4.2.0]octan-2-yl)methyl)-1-(((S)-oxetan-2-yl)methyl)-1H-benzo[d]imidazole-6-carboxylic acid] | 7.96 | 8.06 | < 4.00
9 | COc1cc(C(=O)O)cc2c1nc(CN1CCN(c3cccc4c3O[C@@](C)(c3ccc(Cl)cn3)O4)[C@@H]3CC[C@@H]31)n2C[C@@H]1CCCO1 (single isomer, unassigned) [Example 8c] | 8.80 | 8.59 | < 4.00
